For 32 compounds, Ki results are on record in patent US11498923B2 (Merck Sharp & Dohme Corp., priority 2017, dated 2022).

For this assay, the target named is T1, human A2a receptor (Homo sapiens, UniProt P29274).
T1 construct: purchased Perkin-Elmer RBHA2AM400UA; host or cells: HEK293 cells, used as a membrane preparation
T1 sequence (P29274 whole entry): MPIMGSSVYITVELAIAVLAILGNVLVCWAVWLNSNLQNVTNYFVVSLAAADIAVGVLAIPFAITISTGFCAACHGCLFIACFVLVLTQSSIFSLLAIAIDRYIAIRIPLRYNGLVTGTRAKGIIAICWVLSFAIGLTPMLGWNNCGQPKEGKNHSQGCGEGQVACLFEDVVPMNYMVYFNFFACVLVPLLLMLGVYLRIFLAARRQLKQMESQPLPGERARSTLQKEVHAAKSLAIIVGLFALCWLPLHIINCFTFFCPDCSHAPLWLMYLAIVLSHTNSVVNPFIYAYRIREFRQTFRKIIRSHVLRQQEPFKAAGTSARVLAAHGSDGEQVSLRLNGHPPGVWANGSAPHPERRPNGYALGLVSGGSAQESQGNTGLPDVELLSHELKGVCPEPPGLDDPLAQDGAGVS
Put plainly: A2a receptor competition binding assay (Scintillation Proximity). The following applies: membranes from HEK293 cells expressing human A2a receptor; 0.5 nM tritiated ligand; Cheng-Prusoff; read-out: A2a Ki. The method, then:
Binding affinities of compounds of the invention for the human A2a receptor were determined in a competition binding assay using Scintillation Proximity technology. Thus, 0.3 μg of membranes from HEK293 cells expressing the human A2a receptor were incubated with a compound of the invention at concentrations ranging from 3000 nM to 0.15 nM in a reaction mixture containing also 0.5 nM of a tritiated form of 5-amino-7-[2-phenethyl]-2-(furan-2-yl)-7H-pyrazolo[4,3-e][1,2,4]triazolo[1,5-c]pyrimidine (the tritiated compound) and 100 μg of wheat germ agglutin-coated yttrium silicate SPA beads for one hour at room temperature with agitation. The beads were then allowed to settle to the bottom of the wells for 1 hr, after which the membrane-associated radioactivity was determined by scintillation counting in a TopCount microplate reader. Ki values were determined using the Cheng-Prusoff equation.
Summary of Materials and Methods Used in A2a Activity Determination:
HEK293 cells expressing the human, rat, dog or monkey adenosine 2a receptor (Purchased from Perkin-Elmer #RBHA2AM400UA).
The Tritiated compound was prepared according to published methods.
Wheat germ agglutinin-coated yttrium silicate SPA beads (GE Healthcare #RPNQ0023). Dilute to 25 mg/ml in assay buffer.
Assay Buffer was prepared using Dulbecco's calcium and magnesium free phosphate buffered saline+10 mMMgCl2
Adenosine deaminase from calf intestine, 10 mg/2 ml (Roche #10 102 105 001).
A2a antagonist standard (9-chloro-1-(2-furanyl)-[1,2,4]triazolo1,5-c]quinazolin-5-amine from Tocris Bioscience)
Make eight 1:3 serial dilutions in 100% DMSO from a 3 mM compound stock
Transfer 50 nl of compound into a 384-well OptiPlate (Perkin Elmer).
Typically, final concentrations of compound used in the assay ranged from 3000 nM to 0.152 nM.
Dilute a solution of the Tritiated compound to 1.25 nM in assay buffer. This is a 2.5× solution. The final concentration in the assay is 0.5 nM. Calculate the concentration by counting two 5 μl aliquots.
Use 0.25 ug of membrane/well. Dilute membranes to 9.7 μg/ml in assay buffer. Treat with 20 ug/ml adenosine deaminase (ADA) for 15 minutes at room temperature to degrade endogenous adenosine.
Use 100 μg/well wheat germ agglutinin-coated yttrium silicate SPA beads.
Mix ADA-treated membranes and SPA beads together for 30 min prior to assay.
To the Perkin-Elmer Optiplate-384 containing the compound titration add 20 μl of 2.5× solution of the Tritiated compound and 30 μl of the membrane-bead mixture. Incubate for one hour at room temperature with agitation.
Include total binding (assay buffer+1% DMSO) and non-specific binding (CGS15943, 1 μM) wells.
Allow the beads to settle for one hour.
A curve fitting program (i.e., Prism, Activity Base, Chemcart) is used to determine the EC50. The Ki value is calculated using the Cheng-Prusoff equation. Ki=EC50/(1+(radioligand concentration/Kd))
Turning to `COc1cccc2c1nc(N)n1cc(Cc3ccc(C(=O)Nc4ccccc4)cc3)nc21` [Ex-89, 4-((5-amino-7-methoxyimidazo[1,2-c]quinazolin-2-yl)methyl)-N-phenylbenzamide], the Ki stood at 0.0063 µM. The same measure for `COc1cccc(OCc2cn3c(N)nc4c(F)cccc4c3n2)c1` [Ex-147]: 0.054 µM. The result for `COc1cccc2c1nc(N)n1cc(C(=O)N3CC[C@@H](OC)C3)nc21` [Ex-213, (R)-(5-amino-7-methoxyimidazo[1,2-c]quinazolin-2-yl)(3-methoxypyrrolidin-1-yl)methanone] reads 0.01 µM. Consider `Nc1nc2c(F)cccc2c2nc(CN3CCCN(c4ccccn4)CC3)cn12` [Ex-119, 7-fluoro-2-((4-(pyridin-2-yl)-1,4-diazepan-1-yl)methyl)imidazo[1,2-c]quinazolin-5-amine], for which the Ki came out at 0.21 µM.

Consider `COc1cccc2c1nc(N)n1cc(CN3Cc4ccc(F)cc4C3)nc21` [Ex-123, 2-((5-fluoroisoindolin-2-yl)methyl)-7-methoxyimidazo[1,2-c]quinazolin-5-amine], for which the Ki is 0.0092 µM. On to `COc1cccc2c1nc(N)n1cc(C(=O)N(C)Cc3cccc4cccnc34)nc21` [Ex-159, 5-amino-7-methoxy-N-methyl-N-(quinolin-8-ylmethyl)imidazo[1,2-c]quinazoline-2-carboxamide], for which the Ki is 0.0059 µM.

In the case of `Nc1nc2c(F)cccc2c2nc(C(=O)N3CCc4ccc(CC(=O)Nc5ccccn5)cc4C3)cn12` [Ex-290, 2-(2-(5-amino-7-fluoroimidazo[1,2-c]quinazoline-2-carbonyl)-1,2,3,4-tetrahydroisoquinolin-7-yl)-N-(pyridin-2-yl)acetamide], the Ki is 0.046 µM. The result for `C[C@H](NC(=O)c1cn2c(N)nc3c(F)cccc3c2n1)c1ccccc1` [Ex-296, (S)-5-amino-7-fluoro-N-(1-phenylethyl)imidazo[1,2-c]quinazoline-2-carboxamide] reads 0.028 µM; that for `Nc1nc2c(F)cccc2c2nc(CC3CCN(c4ccc(F)cn4)CC3)cn12` [Ex-319, 5-amino-7-fluoro-2-((1-(5-fluoropyridin-2-yl)piperidin-4-yl)-methyl)imidazo[1,2-c]quinazolin-6-ium 2,2,2-trifluoroacetate], 0.031 µM; that for `Nc1nc2c(F)cccc2c2nc(C(=O)N3CCC4(CCNC4)CC3)cn12` [Ex-267, (5-amino-7-fluoroimidazo[1,2-c]quinazolin-2-yl)(2,8-diazaspiro[4.5]decan-8-yl)methanone], 0.71 µM.

As to `Nc1nc2ccccc2c2nc(C(=O)NCc3cccc4cccnc34)cn12` [Ex-161, 5-amino-N-(quinolin-8-ylmethyl)-imidazo-[1,2-c]-quinazoline-2-carboxamide], the Ki turned out to be 0.0394 µM. The result for `Nc1nc2c(F)cccc2c2nc(CC3CCN(C(=O)c4ncccn4)CC3)cn12` [Ex-326, (4-((5-amino-7-fluoroimidazo[1,2-c]quinazolin-2-yl)-methyl)piperidin-1-yl)(pyrimidin-2-yl)-methanone] reads 0.047 µM. The same measure for `Nc1nc2c(F)cccc2c2nc(C(=O)N3CCc4ccc(NC(=O)c5ccccn5)cc4C3)cn12` [Ex-291, N-(2-(5-amino-7-fluoroimidazo[1,2-c]quinazoline-2-carbonyl)-1,2,3,4-tetrahydroisoquinolin-7-yl)picolinamide]: 0.047 µM; for `COc1cccc2c1nc(N)n1cc(C(=O)N3CCCC4(CCOC4=O)C3)nc21` (centres unmarked) [Ex-233, 7-(5-amino-7-methoxyimidazo[1,2-c]quinazoline-2-carbonyl)-2-oxa-7-azaspiro[4.5]decan-1-one]: 0.01 µM; for `Nc1nc2c(F)cccc2c2nc(C(=O)NCc3ccccc3CN3CCN(c4ccccn4)CC3)cn12` [Ex-246, 5-amino-7-fluoro-N-(2-((4-(pyridin-2-yl)piperazin-1-yl)methyl)benzyl)imidazo[1,2-c]quinazoline-2-carboxamide]: 0.021 µM. The same measure for `COc1cccc2c1nc(N)n1cc(C(=O)N3CC4CC4C3)nc21` (centres unmarked) [Ex-235, (5-amino-7-methoxyimidazo[1,2-c]quinazolin-2-yl)(3-azabicyclo[3.1.0]hexan-3-yl)methanone]: 0.0028 µM; for `COc1cccc2c1nc(N)n1cc(Cc3cccnc3N3CCCC3)nc21` [Ex-49, 7-methoxy-2-((2-(pyrrolidin-1-yl)pyridin-3-yl)methyl)imidazo[1,2-c]quinazolin-5-amine]: 0.0062 µM.

On to `Nc1nc2c(F)cccc2c2nc(Cc3cc(F)ccc3O)cn12` [Ex-37, 2-((5-amino-7-fluoroimidazo[1,2-c]quinazolin-2-yl)methyl)-4-fluorophenol], for which the Ki worked out at 0.018 µM.

With `N#Cc1ccc(N2CCc3c(Cc4cn5c(N)nc6c(F)cccc6c5n4)cccc3C2)nc1` [Ex-54, 6-(5-((5-amino-7-fluoroimidazo[1,2-c]quinazolin-2-yl)methyl)-3,4-dihydroisoquinolin-2(1H)-yl)nicotinonitrile], the Ki worked out at 0.0038 µM.

With `CCCN1CCCC2(CCN(C(=O)c3cn4c(N)nc5c(F)cccc5c4n3)CC2)C1` [Ex-279, (5-amino-7-fluoroimidazo[1,2-c]quinazolin-2-yl)(2-propyl-2,9-diazaspiro[5.5]undecan-9-yl)methanone], the Ki worked out at 0.034 µM. Turning to `COc1cccc2c1nc(N)n1cc(Cc3cccnc3N3CCCCC3)nc21` [Ex-50, 7-methoxy-2-((2-(piperidin-1-yl)pyridin-3-yl)methyl)imidazo[1,2-c]quinazolin-5-amine], the inhibition constant (Ki) was 0.0037 µM. Take `COc1cccc2c1nc(N)n1cc(Cc3cccc4cccnc34)nc21` [Ex-16, 7-methoxy-2-(quinolin-8-ylmethyl)imidazo[1,2-c]quinazolin-5-amine]: the Ki amounted to 0.0003 µM. For `COc1cccc2c1nc(N)n1cc(Cc3cccnc3-c3cncnc3)nc21` [Ex-80, 7-methoxy-2-((2-(pyrimidin-5-yl)pyridin-3-yl)methyl)imidazo[1,2-c]quinazolin-5-amine], the Ki was determined as 0.011 µM. The result for `COc1cccc2c1nc(N)n1cc(C(=O)N3CCCC3C(C)C)nc21` (centres unmarked) [Ex-209, (5-amino-7-methoxyimidazo[1,2-c]quinazolin-2-yl)(2-isopropylpyrrolidin-1-yl)methanone] reads 0.0029 µM; that for `COc1cccc2c1nc(N)n1cc(C(=O)N3CC(C)(C)OC(C)(C)C3)nc21` [Ex-223, (5-amino-7-methoxyimidazo[1,2-c]quinazolin-2-yl)(2,2,6,6-tetramethylmorpholino) methanone], 0.21 µM. The same measure for `COc1cccc2c1nc(N)n1cc(C(=O)N3CCCCC3C)nc21` (centres unmarked) [Ex-195, (5-amino-7-methoxyimidazo[1,2-c]quinazolin-2-yl)(2-methylpiperidin-1-yl)methanone]: 0.01 µM; for `COc1cccc(C(=O)N2CCC(Cc3cn4c(N)nc5c(F)cccc5c4n3)CC2)n1` [Ex-325, (4-((5-amino-7-fluoroimidazo[1,2-c]-quinazolin-2-yl)-methyl)piperidin-1-yl)(6-methoxypyridin-2-yl)methanone]: 0.054 µM. The result for `COc1cccc2c1nc(N)n1cc(C(=O)N3CCCC(F)(F)C3)nc21` [Ex-172, (5-amino-7-methoxyimidazo[1,2-c]quinazolin-2-yl)(3,3-difluoropiperidin-1-yl)methanone] reads 0.018 µM; that for `Nc1nc2c(F)cccc2c2nc(C(=O)NCc3ccccc3N3CCNCC3)cn12` [Ex-261, 5-amino-7-fluoro-N-(2-(piperazin-1-yl)benzyl)imidazo[1,2-c]quinazoline-2-carboxamide], 0.0054 µM; that for `Nc1nc2c(F)cccc2c2nc(Cc3cccc(-c4cccnc4)c3)cn12` [Ex-74, 7-fluoro-2-(3-(pyridin-3-yl)benzyl)imidazo[1,2-c]quinazolin-5-amine], 0.0045 µM.

`COc1cccc2nc(N)n3cc(Cc4ccccc4)nc3c12` [Ex-05, 2-benzyl-10-methoxyimidazo[1,2-c]quinazolin-5-amine]: the Ki was found to be 0.642 µM.

For `COc1cccc2c1nc(N)n1cc(C(=O)N3CCN4CCCC[C@@H]4C3)nc21` [Ex-245, (R)-(5-amino-7-methoxyimidazo[1,2-c]quinazolin-2-yl)(octahydro-2H-pyrido[1,2-a]pyrazin-2-yl)methanone], the Ki worked out at 0.152 µM.
